Assay: Radiolysis / stability of [18F]DCFPyL over time by HPLC with radiodetection (RCP, free 18F, radioactive impurities)
Format: physicochemical
Procedure: Those of ordinary skill in the art will be aware of techniques and systems for determining the radiochemical purity of a composition. In some cases, the radiochemical purity is determined using an HPLC associated with a radio-detector. Generally, the radiochemical purity is determined under ambient conditions (e.g., ambient temperature, ambient humidity, ambient light, etc.), such as in samples stored under such conditions.
Stability was assessed using reverse phase HPLC on a C18 column with a phosphate buffer/acetonitrile gradient mobile phase, and the elution profile was monitored using both UV and radiochemical detectors. Samples were analyzed either by direct injection onto the HPLC, dilution and injection or including the addition of tetraethylammonium fluoride (TEAF) into the sample before injection.
Known amounts of free ^18F either alone or spiked with TEAF were injected onto the analytic column and the eluent from the column collected over the course of a chromatogram and assaying the radioactivity using a Capintec. […] Adding TEAF into the analytic samples was incorporated into subsequent studies examining potential radiolysis of [^18F]DCFPyL to overcome some of the limitations of free ^18F quantification.
Analytical HPLC method was used. The method employs UV detection at 264 nm for chemical impurities, and an Eckert & Ziegler model B-FC-1000 gamma detector for radiochemical assays.

[1] = T = 10, 50 mg/mL ascorbic acid pH 5.8, 20% ethanol, 106.5 mCi/mL at EOS
[2] = T = 0.5 hr, 50 mg/mL ascorbic acid pH 5.8 in final product vial, 20% ethanol, 110 mCi/mL at EOS
[3] = T = 0.5 hr, 100 mg/mL ascorbic acid pH 2.0, 256 mCi/mL at EOS
[4] = T = 0.5 hr, 20% ethanol in saline, 52 mCi/mL at EOS
[5] = T = 0.5 hr, 20% ethanol in saline, 65 mCi/mL at EOS
[6] = T = 0.5 hr, 20% ethanol in saline, 85 mCi/mL at EOS
[7] = T = 0.5 hr, control without ascorbic acid, 36% ethanol in saline, 147 mCi/mL at EOS
[8] = T = 1.0 hr, 50 mg/mL ascorbic acid pH 5.8 in final product vial, 20% ethanol, 110 mCi/mL at EOS
[9] = T = 1.0 hr, 100 mg/mL ascorbic acid pH 2.0, 256 mCi/mL at EOS
[10] = T = 1 hr, 20% ethanol in saline, 52 mCi/mL at EOS
[11] = T = 1 hr, 20% ethanol in saline, 65 mCi/mL at EOS
[12] = T = 1 hr, 20% ethanol in saline, 85 mCi/mL at EOS
[13] = T = 1 hr, 100% ethanol, 325 mCi/mL at EOS
[14] = T = 1 hr, control without ascorbic acid, 36% ethanol in saline, 147 mCi/mL at EOS
[15] = T = 1.5 hr (Table 3 prints 1.6 hr), control without ascorbic acid, 36% ethanol in saline, 147 mCi/mL at EOS
[16] = T = 1.5 hr, 50 mg/mL ascorbic acid pH 5.8 in final product vial, 20% ethanol, 110 mCi/mL at EOS
[17] = T = 1.5 hr, 100 mg/mL ascorbic acid pH 2.0, 256 mCi/mL at EOS
[18] = T = 1.5 hr, 20% ethanol in saline, 52 mCi/mL at EOS
[19] = T = 1.5 hr, 20% ethanol in saline, 65 mCi/mL at EOS
[20] = T = 1.5 hr, 20% ethanol in saline, 85 mCi/mL at EOS
[21] = T = 2 hr, 0.5 mg/mL ascorbic acid pH 5.8, 20% ethanol, 105.8 mCi/mL at EOS
[22] = T = 2 hr, 1 mg/mL ascorbic acid pH 5.8, 20% ethanol, 107.0 mCi/mL at EOS
[23] = T = 2 hr, 5 mg/mL ascorbic acid pH 5.8, 20% ethanol, 99.0 mCi/mL at EOS
[24] = T = 2 hr, 20 mg/mL sodium citrate, 20% ethanol, 104.8 mCi/mL at EOS
[25] = T = 2 hr, 50 mg/mL ascorbic acid pH 5.8, 20% ethanol, 139.7 mCi/mL at EOS
[26] = T = 2.0 hr, 50 mg/mL ascorbic acid pH 5.8 in final product vial, 20% ethanol, 110 mCi/mL at EOS
[27] = T = 2.0 hr, 100 mg/mL ascorbic acid pH 2.0, 256 mCi/mL at EOS
[28] = T = 2 hr, 20% ethanol in saline, 52 mCi/mL at EOS
[29] = T = 2 hr, 20% ethanol in saline, 65 mCi/mL at EOS
[30] = T = 2 hr, 20% ethanol in saline, 85 mCi/mL at EOS
[31] = T = 2 hr, 100% ethanol, 325 mCi/mL at EOS
[32] = T = 2 hr, control without ascorbic acid, 36% ethanol in saline, 147 mCi/mL at EOS
[33] = T = 2.5 hr, 50 mg/mL ascorbic acid pH 5.8 in final product vial, 20% ethanol, 110 mCi/mL at EOS

SMILES: O=C(O)CC[C@H](NC(=O)N[C@@H](CCCCNC(=O)c1ccc([18F])nc1)C(=O)O)C(=O)O [Lot 18F-DCFPyL, 2-(3-{1-carboxy-5-[(6-[18F]fluoro-pyridine-3-carbonyl)-amino]-pentyl}ureido)-pentanedioic acid]
- 18F-DCFPyL (% RCP) [1]: 99.43%
- Free F-18 [1]: 0.57%
- 18F-DCFPyL (RCP) [2]: 99.69%
- RT 5.0 radioactive impurity [2]: 0.31%
- 18F-DCFPyL (RCP) [3]: 99.60%
- Free 18F [3]: 0.40%
- 18F-DCFPyL (RCP) [4]: 99.18%
- Free F-18 [4]: 0.36%
- RT 5.0 radioactive impurity [4]: 0.47%
- 18F-DCFPyL (RCP) [5]: 96.43%
- Free F-18 [5]: 3.17%
- RT 5.0 radioactive impurity [5]: 0.39%
- 18F-DCFPyL (RCP) [6]: 96.74%
- Free F-18 [6]: 2.92%
- RT 5.0 radioactive impurity [6]: 0.34%
- 18F-DCFPyL (RCP) [7]: 90.65%
- Free F-18 [7]: 7.73%
- RT 5.0 radioactive impurity [7]: 0.65%
- RT 5.9 radioactive impurity [7]: 0.97%
- 18F-DCFPyL (RCP) [8]: 96.73%
- RT 5.0 radioactive impurity [8]: 0.27%
- 18F-DCFPyL (RCP) [9]: 98.68%
- Free 18F [9]: 0.31%
- RT 5.0 radioactive impurity [9]: 0.35%
- RT 12.0 radioactive impurity [9]: 0.35%
- RT 12.2 radioactive impurity [9]: 0.31%
- 18F-DCFPyL (RCP) [10]: 98.93%
- Free F-18 [10]: 0.56%
- RT 5.0 radioactive impurity [10]: 0.51%
- 18F-DCFPyL (RCP) [11]: 96.15%
- Free F-18 [11]: 3.22%
- RT 5.0 radioactive impurity [11]: 0.36%
- RT 5.9 radioactive impurity [11]: 0.28%
- 18F-DCFPyL (RCP) [12]: 96.64%
- Free F-18 [12]: 2.98%
- RT 5.0 radioactive impurity [12]: 0.38%
- 18F-DCFPyL (RCP) [13]: 96.66%
- Free F-18 [13]: 3.34%
- 18F-DCFPyL (RCP) [14]: 90.71%
- Free F-18 [14]: 7.69%
- RT 5.0 radioactive impurity [14]: 0.48%
- RT 5.9 radioactive impurity [14]: 1.11%
- 18F-DCFPyL (RCP) [15]: 89.59%
- Free F-18 [15]: 8.78%
- RT 5.0 radioactive impurity [15]: 0.61%
- RT 5.9 radioactive impurity [15]: 1.03%
- 18F-DCFPyL (RCP) [16]: 99.61%
- RT 5.0 radioactive impurity [16]: 0.39%
- RT 5.9 radioactive impurity [16]: 0.31%
- 18F-DCFPyL (RCP) [17]: 98.58%
- Free 18F [17]: 0.31%
- RT 5.0 radioactive impurity [17]: 0.28%
- RT 12.0 radioactive impurity [17]: 0.46%
- RT 12.2 radioactive impurity [17]: 0.37%
- 18F-DCFPyL (RCP) [18]: 98.70%
- Free F-18 [18]: 0.80%
- RT 5.0 radioactive impurity [18]: 0.50%
- 18F-DCFPyL (RCP) [19]: 95.78%
- Free F-18 [19]: 3.55%
- RT 5.0 radioactive impurity [19]: 0.38%
- RT 5.9 radioactive impurity [19]: 0.29%
- 18F-DCFPyL (RCP) [20]: 95.06%
- Free F-18 [20]: 4.22%
- RT 5.0 radioactive impurity [20]: 0.41%
- RT 5.9 radioactive impurity [20]: 0.31%
- 18F-DCFPyL (% RCP) [21]: 98.99%
- Free F-18 [21]: 1.01%
- 18F-DCFPyL (% RCP) [22]: 98.88%
- Free F-18 [22]: 1.12%
- Free F-18 (T = 2 hr, 1 mg/mL sodium ascorbate, 20% ethanol, 111.5 mCi/mL at EOS): 1.89%
- 18F-DCFPyL (% RCP) [23]: 99.45%
- Free F-18 [23]: 0.55%
- Free F-18 (T = 2 hr, 5 mg/mL sodium ascorbate, 20% ethanol, 114.6 mCi/mL at EOS): 0.89%
- Free F-18 [24]: 18.24%
- RT 3.4 radioactive impurity [24]: 0.30%
- RT 3.7 radioactive impurity [24]: 0.31%
- 18F-DCFPyL (% RCP) [25]: 100.00%
- Free F-18 [25]: 0.00%
- RT 4.8 radioactive impurity (T = 2 hr, 50 mg/mL ascorbic acid pH 5.8, 20% ethanol, 139.7 mCi/mL at EOS, MPA = 0.25% of main peak): <MPA
- 18F-DCFPyL (RCP) [26]: 99.67%
- RT 5.0 radioactive impurity [26]: 0.33%
- RT 5.9 radioactive impurity [26]: 0.24%
- 18F-DCFPyL (RCP) [27]: 98.35%
- Free 18F [27]: 0.31%
- RT 5.0 radioactive impurity [27]: 0.35%
- RT 12.0 radioactive impurity [27]: 0.52%
- RT 12.2 radioactive impurity [27]: 0.47%
- 18F-DCFPyL (RCP) [28]: 98.62%
- Free F-18 [28]: 0.91%
- RT 5.0 radioactive impurity [28]: 0.47%
- 18F-DCFPyL (RCP) [29]: 95.91%
- Free F-18 [29]: 3.78%
- RT 5.0 radioactive impurity [29]: 0.31%
- 18F-DCFPyL (RCP) [30]: 95.37%
- Free F-18 [30]: 4.00%
- RT 5.0 radioactive impurity [30]: 0.39%
- RT 5.9 radioactive impurity [30]: 0.24%
- 18F-DCFPyL (RCP) [31]: 96.38%
- Free F-18 [31]: 3.62%
- 18F-DCFPyL (RCP) [32]: 89.50%
- Free F-18 [32]: 8.67%
- RT 5.0 radioactive impurity [32]: 0.77%
- RT 5.9 radioactive impurity [32]: 1.05%
- 18F-DCFPyL (RCP) [33]: 99.63%
- RT 5.0 radioactive impurity [33]: 0.37%
- RT 5.9 radioactive impurity [33]: 0.35%
